PMC8921975 (Journal of the American Chemical Society, 2020)
Entries after “also recorded” stand apart in the source; their conditions may differ. Positions of bridges follow the written chain, without caps; N, C: chain ends. Non-standard residues stand in square brackets, D forms with d. No end group written: not given here. pGlu = O=C1CC[C@@H](C(=O)O)N1

Assays:
full-length TDP1 = full-length TDP1 (Homo sapiens, UniProt Q9NUW8); assay: Steady-state; type: biochemical
[1] = test system: N-terminal truncated form of TDP1 (Δ147TDP1); type: biochemical, human; details: N-terminally truncated TDP1 lacking regulatory domain (Δ1–147); FRET assay, PBS pH 7.4, 80 mM KCl, 1 mM TCEP
TDP1 = TDP1 inhibitory activity of Axinella-derived peptides; type: biochemical; details: Figure S2
[2] = full-length TDP1 0.5 nM, 0.01–3 μM FRET substrate, recifin A 0, 0.2, 0.5, 1, 2 μM, PBS pH 7.4, 80 mM KCl, 1 mM TCEP, quadruplicate, 1 h
[3] = full-length TDP1, Figure S10 (Km and Vmax ratios)

Chain of full-length TDP1 (Q9NUW8 whole entry, the tested form may be a part): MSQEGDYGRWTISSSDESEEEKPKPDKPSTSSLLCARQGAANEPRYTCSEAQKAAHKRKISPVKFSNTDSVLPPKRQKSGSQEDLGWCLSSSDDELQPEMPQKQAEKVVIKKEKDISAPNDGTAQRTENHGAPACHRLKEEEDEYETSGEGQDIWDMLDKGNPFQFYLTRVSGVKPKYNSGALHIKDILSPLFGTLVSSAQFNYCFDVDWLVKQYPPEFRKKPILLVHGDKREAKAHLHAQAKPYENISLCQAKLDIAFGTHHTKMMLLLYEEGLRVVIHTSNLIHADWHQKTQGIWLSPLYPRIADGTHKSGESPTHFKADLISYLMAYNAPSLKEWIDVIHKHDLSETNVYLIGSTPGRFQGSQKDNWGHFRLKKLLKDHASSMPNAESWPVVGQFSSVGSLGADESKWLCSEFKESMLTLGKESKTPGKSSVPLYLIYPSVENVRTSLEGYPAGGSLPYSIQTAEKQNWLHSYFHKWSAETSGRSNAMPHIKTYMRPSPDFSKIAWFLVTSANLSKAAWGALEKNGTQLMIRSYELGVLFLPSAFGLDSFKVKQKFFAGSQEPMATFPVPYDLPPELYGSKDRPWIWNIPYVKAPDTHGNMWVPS

## [pGlu]EAFCYSDRFCQNYIGSIPDCCFGRGSYSFELQPPPWECYQC (disulfide 5-21, 11-39, 22-42) [recifin A]
full-length TDP1; [2]
  Km for the substrate, effect of recifin A (in words): increased the Km for the substrate
  Vmax, effect of recifin A (in words): modest increase of the observed Vmax value; also recorded: increased the Vmax of the enzyme
full-length TDP1; [3]
  recifin A-dependent increase in the Km for the substrate: approximately 6 fold
  recifin A-dependent increase of observed Vmax: approximately 1.6 fold
[1]
  inhibition of Δ147TDP1 enzymatic activity (in words): not affecting the activity of a truncated catalytic domain of TDP1; also recorded: only a minimal effect; also recorded: inhibited full-length TDP1 but not N-terminally truncated TDP1 (Δ147TDP1); also recorded: does not affect the enzymatic activity of truncated TDP1; also recorded: unaffected by recifin A
TDP1
  TDP1 inhibitory activity relative to the other Axinella peptides: most active peptide
